This note sets out measurements from ChEMBL document CHEMBL1201862, “PubChem BioAssay data set” (2004).

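Step 1: Grow cells in 96-well plates. Step 2: Expose to compound for 48 hours at 5 concentrations. Step 3: Interpolate endpoints linearly; if unreached, use highest concentration. At the GI50, growth is halved.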 Activity calls are given as the source filed them. Cut-off read from the data, not from the text of the source: active = GI50 up to about 1.1 µM and inactive = higher.

Some test systems named below: SK-MEL-28; MCF7; SK-MEL-2; SF-268; A549; SNB-19; EKVX; DU-145; NCI-H226; NCI/ADR-RES; IGROV-1; Hs-578T; MOLT-4; MDA-MB-231; PC-3; RPMI-8226; HT-29; K562; CCRF-CEM; HCT-116.
Holding throughout (test): NCI tumour cell line growth inhibition, 48 h

For the compound `N=C(N)NS(=O)(=O)c1ccc(NC(=O)c2cccc3c(NNc4ccc(S(=O)(=O)N=C(N)N)cc4)c4ccccc4nc23)cc1`, the GI50 with SK-MEL-28 is 37.2 µM (inactive); with MCF7, 29.9 µM (inactive); in the assay with SK-MEL-2, 16.9 µM (inactive); in the assay with SF-268, 61.9 µM (inactive); with A549 it was > 100 µM (inactive); with SNB-19 it was 76.7 µM (inactive). Moreover, the GI50 in the assay with EKVX was 30.8 µM (inactive); in the assay on DU-145, > 100 µM (inactive); with NCI-H226 it was 91.8 µM (inactive); in the assay with NCI/ADR-RES it was > 100 µM (inactive); in the assay with IGROV-1 it was 51.5 µM (inactive); in the assay with Hs-578T it was 54.7 µM (inactive). Further, the GI50 with MOLT-4 was 30.8 µM (inactive); in the assay on MDA-MB-231, 46.6 µM (inactive); in the assay with PC-3 it was 61 µM (inactive); with RPMI-8226, 37.9 µM (inactive); in the assay on HT-29 it was 31.1 µM (inactive); with K562 it was 28.1 µM (inactive). Further, the GI50 with CCRF-CEM is 19.3 µM (inactive); with HCT-116, 35.7 µM (inactive).

Consider `O=C(/C=C(\Nc1ccccc1O)c1ccc(Br)cc1)C(Cl)(Cl)Cl`, for which the GI50 is 11 µM (inactive) in the assay on SK-MEL-28; 5.21 µM (inactive) in the assay on MCF7; 8.04 µM (inactive) in the assay on SK-MEL-2; 11.7 µM (inactive) in the assay on SF-268; 2.75 µM (inactive) with A549; 6.87 µM (inactive) in the assay on SNB-19. Further, the GI50 in the assay with EKVX was 3.21 µM (inactive); with DU-145 it was 3.03 µM (inactive); in the assay with NCI-H226, 12.1 µM (inactive); with NCI/ADR-RES it was 11.4 µM (inactive); in the assay on IGROV-1, 10.3 µM (inactive); in the assay on Hs-578T, 3.1 µM (inactive). The GI50 was 13.9 µM (inactive) with MOLT-4; 6.95 µM (inactive) in the assay with MDA-MB-231; 2.47 µM (inactive) with PC-3; 1.79 µM (inactive) with RPMI-8226; 6.43 µM (inactive) in the assay on HT-29; 14.2 µM (inactive) in the assay on K562. In addition, the results for the GI50 in the assay on CCRF-CEM and with HCT-116 were 15.4 µM (inactive) and 10.5 µM (inactive), respectively.

As for `CC1=C(C(=O)NCC(C)O)CC(C(=O)NCC(C)O)=C(C)N1` (stereo not given), the GI50 in the assay with SK-MEL-28, in the assay on MCF7, in the assay on SK-MEL-2, in the assay on SF-268, in the assay with A549 and in the assay with SNB-19 was > 100 µM (inactive) each time. Further, the GI50 was > 100 µM (inactive) with EKVX; > 100 µM (inactive) in the assay on DU-145; 89.7 µM (inactive) in the assay with NCI-H226; > 100 µM (inactive) in the assay on NCI/ADR-RES; > 100 µM (inactive) in the assay on IGROV-1; > 100 µM (inactive) in the assay with Hs-578T. Further, the GI50 with MOLT-4 was > 100 µM (inactive); in the assay with MDA-MB-231, 46.5 µM (inactive); in the assay on PC-3, > 100 µM (inactive); in the assay on RPMI-8226 it was > 100 µM (inactive); in the assay with HT-29 it was > 100 µM (inactive); in the assay on K562, > 100 µM (inactive). For the same compound, the GI50 with CCRF-CEM and in the assay with HCT-116 was > 100 µM (inactive) in each case.

`COC(=O)C1OC(SCCN)C(O)C(O)C1O` (stereo not given): the GI50 in the assay on SK-MEL-28, in the assay with MCF7, with SK-MEL-2, in the assay on SF-268, with A549 and in the assay on SNB-19 was > 100 µM (inactive) in each case. Besides, the GI50 in the assay on EKVX, in the assay with DU-145, with NCI-H226, in the assay with NCI/ADR-RES, in the assay on IGROV-1 and with Hs-578T was > 100 µM (inactive) each time. Further, the GI50 with MOLT-4, in the assay on MDA-MB-231, with PC-3, with RPMI-8226, in the assay with HT-29 and in the assay on K562 was > 100 µM (inactive) throughout. The GI50 in the assay on CCRF-CEM and in the assay on HCT-116 was > 100 µM (inactive) in each case.

`COC(=O)/C=C\C(C#N)(C#N)/N=C/c1cc(Br)cs1`: the GI50 in the assay with SK-MEL-28 is 5.32 µM (inactive); with MCF7, 1.51 µM (inactive); with SK-MEL-2, 10.6 µM (inactive); in the assay on SF-268 it was 6.1 µM (inactive); in the assay on A549 it was 18 µM (inactive); in the assay with SNB-19, 18.5 µM (inactive). Further, the GI50 with EKVX is 7.45 µM (inactive); in the assay on DU-145, 7.31 µM (inactive); with NCI-H226, 19.8 µM (inactive); with NCI/ADR-RES it was 15.7 µM (inactive); in the assay on IGROV-1, 3.44 µM (inactive); in the assay with Hs-578T it was 22.8 µM (inactive). The GI50 in the assay with MOLT-4 is 1.89 µM (inactive); in the assay with MDA-MB-231, 9.35 µM (inactive); in the assay on PC-3, 5.09 µM (inactive); with RPMI-8226, 3.24 µM (inactive); in the assay on HT-29, 1.94 µM (inactive); in the assay with K562 it was 0.562 µM (active). Also, the values for the GI50 in the assay on CCRF-CEM and in the assay with HCT-116 were 0.0914 µM (active) and 1.76 µM (inactive), respectively.

Consider `O=C1c2c(Br)sc(Br)c2[C@H]2NC(=S)O[C@@H]12`, for which the GI50 in the assay on SK-MEL-28 was 13.2 µM (inactive); in the assay on MCF7, 16.1 µM (inactive); in the assay on SK-MEL-2, 17.4 µM (inactive); with SF-268, 15 µM (inactive); in the assay on A549 it was 20.8 µM (inactive); with SNB-19, 21.7 µM (inactive). Moreover, the GI50 in the assay with EKVX was 20.4 µM (inactive); with DU-145, 16 µM (inactive); with NCI-H226 it was 20.7 µM (inactive); in the assay on NCI/ADR-RES, 21.4 µM (inactive); with IGROV-1, 16.7 µM (inactive); in the assay on Hs-578T, 23.2 µM (inactive). Moreover, the GI50 in the assay with MOLT-4 was 1.32 µM (inactive); with MDA-MB-231, 17.9 µM (inactive); with PC-3 it was 14.5 µM (inactive); in the assay with RPMI-8226, 7.38 µM (inactive); with HT-29, 14.5 µM (inactive); with K562, 2.98 µM (inactive). Also, the GI50 with CCRF-CEM is 2.15 µM (inactive); with HCT-116 it was 10.7 µM (inactive).

As to `COc1cc2c(cc1OCCCCOc1cc(-c3ccc(F)cc3)nc(C)n1)N=C[C@@H]1CCCN1C2=O`, the GI50 with SK-MEL-28 was 0.982 µM (active); in the assay with MCF7, 0.502 µM (active); in the assay with SK-MEL-2, 0.853 µM (active); with SF-268, 0.771 µM (active); with A549, 1.15 µM (inactive); in the assay with SNB-19, 0.689 µM (active). The GI50 in the assay with EKVX is 1.66 µM (inactive); in the assay with DU-145 it was 0.225 µM (active); in the assay with NCI-H226, 1.05 µM (active); with NCI/ADR-RES, 0.45 µM (active); in the assay with IGROV-1 it was 0.731 µM (active); in the assay with Hs-578T, 1.05 µM (active). In addition, the GI50 in the assay on MOLT-4 was 0.108 µM (active); in the assay with MDA-MB-231, 1.04 µM (active); in the assay with PC-3 it was 0.759 µM (active); in the assay on RPMI-8226 it was 0.0519 µM (active); in the assay on HT-29, 0.442 µM (active); with K562, 0.267 µM (active). For the same compound, the GI50 in the assay on CCRF-CEM is 0.135 µM (active); with HCT-116, 0.838 µM (active).

Consider `NC(=O)NO` [HYDROXYUREA], for which the GI50 in the assay with SK-MEL-28 is 1920 µM (inactive); in the assay on MCF7, 385 µM (inactive); in the assay on SK-MEL-2, 2000 µM (inactive); in the assay on SF-268 it was 524 µM (inactive); with A549 it was 514 µM (inactive); with SNB-19, 1580 µM (inactive). The GI50 in the assay with EKVX was 1790 µM (inactive); in the assay with DU-145 it was 818 µM (inactive); with NCI-H226 it was 773 µM (inactive); with NCI/ADR-RES it was 390 µM (inactive); with IGROV-1 it was 1110 µM (inactive); in the assay with Hs-578T, 740 µM (inactive). The GI50 with MOLT-4 is 222 µM (inactive); with MDA-MB-231 it was > 1410 µM (inactive); in the assay with PC-3, 1010 µM (inactive); in the assay on RPMI-8226, 277 µM (inactive); in the assay on HT-29 it was 605 µM (inactive); in the assay on K562, 877 µM (inactive). For the same compound, the GI50 is 50.4 µM (inactive) with CCRF-CEM and 995 µM (inactive) in the assay on HCT-116.

Regarding `O=C(O)Cc1cccc2c(=O)cc(-c3ccccc3)oc12` [MITOFLAXONE], the GI50 with SK-MEL-28 is > 250 µM (inactive); in the assay with MCF7, 236 µM (inactive); in the assay with SK-MEL-2, 153 µM (inactive); in the assay with SF-268, > 250 µM (inactive); in the assay with A549 it was 245 µM (inactive); with SNB-19 it was > 250 µM (inactive). Also, the GI50 in the assay on EKVX is 242 µM (inactive); in the assay on DU-145, > 940 µM (inactive); in the assay with NCI-H226, 237 µM (inactive); with NCI/ADR-RES, 222 µM (inactive); in the assay on IGROV-1 it was > 250 µM (inactive); in the assay on Hs-578T it was 149 µM (inactive). The GI50 is > 209 µM (inactive) in the assay with MOLT-4; > 250 µM (inactive) in the assay on MDA-MB-231; > 250 µM (inactive) with PC-3; 244 µM (inactive) with RPMI-8226; > 250 µM (inactive) in the assay with HT-29; 239 µM (inactive) in the assay with K562. Further, the GI50 in the assay on CCRF-CEM is 213 µM (inactive); in the assay on HCT-116, 206 µM (inactive).
